Measured values published in US20240016762A1, “DUAL ANALGESIC/ANTI-INFLAMMATORY COMPOSITIONS COMPRISING CB2 RECEPTOR AGONISTS, COMBINATIONS, AND METHODS OF USE THEREOF” (Altus Formulation lnc., priority 2020, published 2024).

Columns and labels:
CB2 receptor = CB2 receptor (Homo sapiens, UniProt P34972); conditions: Smoum et al. (2015); cited from earlier work
[1] = system: corneal cauterization and capsaicin challenge (corneal pain); conditions: cited from earlier work; for ED50: Thapa et al (2018)
[2] = system: plantar incision in the hind paw (post-operative incisional pain); test: Rat postoperative incisional (plantar incision) pain model, von Frey withdrawal threshold; conditions: iv; for ED50: Rattus norvegicus, read-out: ED50 (median effective dose)
Procedure: The model developed was based on that described by Labuda et al. (supra). […] All test articles were administered intravenously via the tail vein as a single bolus.
Male Sprague Dawley rats (Charles River, St-Constant, Qc, Canada), were purchased and housed in auto-ventilated cages in a climate-controlled room on a 12-hour light/dark cycle. The animals were allowed free access to food pellets and water and weighed 200-225 g at the time of the testing.
Post-operative incisional pain was induced via a 1 cm plantar incision in the hind paw. Briefly, under deep anesthesia with isoflurane the plantar aspect of the hind paw was cleaned and sterilized using a 10% povidone-iodine solution after which a 1 cm longitudinal incision was made with a number 11 blade. The incision penetrated through the skin and fascia of the plantar aspect of the foot. The plantaris muscle was also elevated and incised longitudinally, the muscle origin remaining intact. After hemostatis with gentle pressure, the skin was closed with 2 mattress sutures of 5-0 nylon and the wound site covered with an antibacterial ointment. The rats were then placed in clear Plexiglas cages with plastic grid floors (8×8 mm) and allowed to acclimate.
The pain response was evaluated using the von Frey mechanical stimulation test employing von Frey filaments applied vertically to an area adjacent to the wound. […] The resistance to bending (reflective of the applied pressure) of the filament causing a withdrawal response was then recorded as the withdrawal threshold. […] After each filament application, animals were given a 5 minute test-free period after which the test was repeated the lowest force required for a withdrawal response from the 2 tests being recorded as the withdrawal threshold (WT). […]
The paw withdrawal threshold was again measured at 0.25, 1, 2, 3, 4, 5, 6, 7, 8 hours post treatment administration animal responses being plotted as withdrawal response/time curves for each dose given as before.

CB2 receptor, sequence (P34972 whole entry): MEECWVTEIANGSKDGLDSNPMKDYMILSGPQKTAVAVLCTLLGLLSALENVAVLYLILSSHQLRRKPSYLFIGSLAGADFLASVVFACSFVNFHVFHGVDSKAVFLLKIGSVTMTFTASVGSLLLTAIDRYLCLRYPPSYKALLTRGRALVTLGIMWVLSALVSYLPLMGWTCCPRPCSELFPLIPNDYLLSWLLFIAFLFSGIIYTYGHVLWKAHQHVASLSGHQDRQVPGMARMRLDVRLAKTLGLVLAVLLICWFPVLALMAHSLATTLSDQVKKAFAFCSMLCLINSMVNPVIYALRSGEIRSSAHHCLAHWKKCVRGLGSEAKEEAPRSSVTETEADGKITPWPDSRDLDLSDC

Structure (SMILES) | ED50 [1] | ED50 [2] | further results
CCCCCCC(C)(C)c1cc(OC)c([C@@H]2C=C(CO)[C@@H]3C[C@H]2C3(C)C)c(OC)c1 (single isomer, unassigned) [Batch E2] |  |  | Affinity for CB2 receptor relative to E1 (CB2 receptor): lower affinity for CB2 receptor than E1
CCCCCc1cc(O)c2c(c1)OC(C)(C)[C@@H]1CC=C(C)C[C@@H]21 [A8 THC] | 1% |  | 
C=C(C)[C@@H]1CCC(C)=C[C@H]1c1c(O)cc(CCCCC)cc1O [CBD] | 5% |  | 
CCCCCCC(C)(C)c1cc(OC)c([C@@H]2C=C(CO)[C@@H]3C[C@H]2C3(C)C)c(OC)c1 [HU-308] |  |  | Pain score ([1]; 1.5% solution in soybean oil, Thapa et al. (2018)): 17; Analgesic effect ([1]; doses lower than 1.5%, Thapa et al. (2018)): failed to generate an analgesic effect
O=C(c1ccccc1)c1ccc2n1CCC2C(=O)O (centres unmarked) [Ketorolac, ketorolac] |  | 23.1 mg/kg | Dose/response relationship of AUC0.25-8 hr [2]: clear dose response effect
Cc1ccc(-c2cc(C(F)(F)F)nn2-c2ccc(S(N)(=O)=O)cc2)cc1 [celecoxib] |  | 22.3 mg/kg | 
